Assay results taken from patent US20170065564A1, “BIS-CYCLIC GUANIDINE COMPOUND COMPOSITIONS, METHODS OF USE AND TREATMENT THEREOF” (University of South Florida, priority 2014, published 2017).
In brackets after ≈: the same amount, converted by molar mass. Where two headings read alike, the source gives them in different places.

Assays:
[1] = test system: Klebsiella pneumoniae biofilm; experiment: Minimum biofilm eradication concentration (MBEC) assay; format: cell-based; conditions: 24 h biofilm, purified compound
Procedure: (§1) The minimum biofilm eradication concentration (MBEC) was determined in 96-well microtiter plates as follows. Broth cultures of ESKAPE strains were grown using the conditions described above. Biofilms for each of the ESKAPE pathogens were generated from these as we have previously described for S. aureus, however human serum was not used for non-staphylococcal organisms.^44 46 For all organisms, biofilms were developed by standardizing an overnight culture into fresh media to an OD600 of 0.5 and adding 150 μl into each well of a 96-well microtiter plate. […] These cultures were incubated at 37° C. overnight alongside no drug controls. After 24 hours, the media was removed from wells and the biofilm resuspended in phosphate buffered saline (PBS). Cultures were mixed by vigorous pipetting, before being serially diluted in PBS, and plated in duplicate on relevant agar. Plates were incubated at 37° C. for 24 hours, and CFUs determined by enumeration. Each analysis was performed using three technical replicates, and antibiofilm activity was determined by comparing treated to untreated samples.

[2] = test system: Acinetobacter baumannii biofilm; experiment: as above; format: cell-based; conditions: 24 h biofilm, purified compound
Procedure: as §1

[3] = test system: Enterobacter cloacae biofilm; experiment: as above; format: cell-based; conditions: 24 h biofilm, purified compound
Procedure: as §1

[4] = test system: Pseudomonas aeruginosa biofilm; experiment: as above; format: cell-based; conditions: 24 h biofilm, purified compound
Procedure: as §1

[5] = test system: Enterococcus faecium biofilm; experiment: as above; format: cell-based; conditions: 24 h biofilm, purified compound
Procedure: as §1

[6] = test system: Staphylococcus aureus biofilm; experiment: as above; format: cell-based; conditions: 24 h biofilm, purified compound
Procedure: as §1

[7] = test system: Enterococcus faecium; experiment: Minimal bactericidal concentration (MBC) assay; format: cell-based; conditions: purified compound, read-out: MBC90
Procedure: (§2) Briefly, compound was washed by centrifugation and serial dilution, before plating on Tryptic Soy Agar (TSA). Plates were incubated for 24 hours at 37° C. and cell viability assessed by determining CFU/ml at each concentration, for every compound. Percent recovery was then determined compared to CFU/ml from no drug controls. All concentrations and controls were tested using three biological replicates, alongside two technical replicates for each data point.

[8] = test system: Acinetobacter baumannii; experiment: Minimal bactericidal concentration (MBC) assay; format: cell-based; conditions: purified compound, read-out: MBC90
Procedure: as §2

[9] = test system: Pseudomonas aeruginosa; experiment: Minimal bactericidal concentration (MBC) assay; format: cell-based; conditions: Pseudomonas aeruginosa; purified compound; read-out: MBC90
Procedure: as §2

[10] = test system: Staphylococcus aureus; experiment: Minimal bactericidal concentration (MBC) assay; format: cell-based; conditions: purified compound, read-out: MBC90
Procedure: as §2

[11] = test system: Enterobacter cloacae; experiment: Minimal bactericidal concentration (MBC) assay; format: cell-based; conditions: Enterobacter cloacae; purified compound; read-out: MBC90
Procedure: as §2

[12] = test system: Klebsiella pneumoniae; experiment: Minimal bactericidal concentration (MBC) assay; format: cell-based; conditions: purified compound, read-out: MBC90
Procedure: as §2

[13] = test system: Klebsiella pneumoniae; experiment: MIC micro broth dilution assay; format: cell-based; conditions: for MIC: Klebsiella pneumoniae
How it was run: (§3)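 Strains were multidrug-resistant clinical isolates grown in LB (Gram-negative) or TSB (Gram-positive), diluted 1:1,000 before compound addition.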

[14] = test system: Pseudomonas aeruginosa; experiment: MIC micro broth dilution assay; format: cell-based; conditions: for MIC: Pseudomonas aeruginosa
Procedure: For this study we used a representative panel of multi-drug resistant clinical ESKAPE pathogen isolates (Supplemental Table S6).^42 43 3a, 44 45 Gram-positive organisms were grown in tryptic soy broth media (TSB), whilst Gram-negative organisms were grown in lysogeny Broth (LB), as described by us previously. ^43 MIC and MBC determination assays.
Broth cultures of ESKAPE strains were grown overnight before being diluted 1 in 1,000 in fresh media. Sterile 96-well plates were loaded with culture and compounds (in DMF) were added at decreasing concentrations to equal a total volume of 200 μl per well. Care was taken to not add more than 2.0% DMF to any well. Plates were then incubated at 37° C., and MICs determined after 24 hours by visual inspection for a lack of turbidity in wells. All assays were performed in triplicate with identical results obtained. For both the scaffold ranking and positional scanning samples, relative broad-spectrum activity was determined via stacked scores: […]

[15] = test system: A. baumannii; experiment: Resistance serial passage assay; format: cell-based, Acinetobacter baumannii; conditions: 8 passages, concentration doubled each day
Procedure: (§4) ESKAPE pathogens were grown overnight in liquid media at 37° C. These cultures were then diluted 1:100 in fresh media, and seeded into a 96-well plate. Lead bis-cyclic guanidines or control agents were added to respective wells at half MIC concentrations. Plates were then incubated for 24 hours at 37° C., with bacteria removed from these cultures on the following day, to inoculate fresh media (1:100 dilution) containing compounds at a 2-fold higher concentrations. These were then grown overnight, and the procedure repeated for a total of eight days. […] Each experiment was performed in triplicate, yielding identical results.

[16] = test system: Acinetobacter baumannii; experiment: MIC micro broth dilution assay; format: cell-based; conditions: for MIC: Acinetobacter baumannii
How it was run: as §3

[17] = test system: K. pneumoniae; experiment: Resistance serial passage assay; format: cell-based, Klebsiella pneumoniae; conditions: 8 passages, concentration doubled each day
Procedure: as §4

CCCCCCCN1C(=N)N(CCCC[C@H]2CNC(=N)N2CCc2cccc(C(F)(F)F)c2)C[C@@H]1CC1CCCCC1 [Compound 7]
MBEC50 [1]: 4.81 µM
MBEC50 [2]: 13.10 µM
MBEC50 [3]: 14.54 µM
MBEC50 [4]: 45.56 µM
MBEC50 [5]: 26.30 µM
MBEC50 [6]: 4.35 µM
MBC ([7]; Enterococcus faecium): 2.16 to 3.28 µM (≈ 1.28 to 1.94 µg/mL)
MBC [7]: 3.27 µM (≈ 1.93 µg/mL)
MBC ([8]; Acinetobacter baumannii): 2.16 to 3.28 µM (≈ 1.28 to 1.94 µg/mL)
MBC [8]: 3.23 µM (≈ 1.91 µg/mL)
MBC [9]: 13.7 µM (≈ 8.12 µg/mL)
MBC ([10]; Staphylococcus aureus): 2.16 to 3.28 µM (≈ 1.28 to 1.94 µg/mL)
MBC [10]: 3.28 µM (≈ 1.94 µg/mL)
MBC [11]: 6.36 µM (≈ 3.76 µg/mL)
MBC ([12]; Klebsiella pneumoniae): 2.16 to 3.28 µM (≈ 1.28 to 1.94 µg/mL)
MBC [12]: 2.16 µM (≈ 1.28 µg/mL)
stacked score activity, 100/MIC, K ([13]; K. pneumoniae): 20
MIC ([13]; K. pneumoniae isolate 1408): 2 µM (≈ 1.18 µg/mL)
MIC ([13]; K. pneumoniae isolate 1409): 3 µM (≈ 1.77 µg/mL)
MIC ([13]; K. pneumoniae isolate 1410): 2 µM (≈ 1.18 µg/mL)
MIC ([13]; K. pneumoniae isolate 1411): 2 µM (≈ 1.18 µg/mL)
MIC ([13]; K. pneumoniae isolate 1412): 2 µM (≈ 1.18 µg/mL)
MIC ([13]; K. pneumoniae isolate 1413): 2 µM (≈ 1.18 µg/mL)
MIC ([13]; K. pneumoniae isolate 1433): 2 µM (≈ 1.18 µg/mL)
MIC ([13]; K. pneumoniae isolate 1434): 5 µM (≈ 2.95 µg/mL)
MIC ([13]; K. pneumoniae isolate 1440): 3 µM (≈ 1.77 µg/mL)
MIC ([13]; K. pneumoniae isolate 1441): 2 µM (≈ 1.18 µg/mL)
MIC ([13]; purified compound, Table 1): 1.52 µM (≈ 0.898 µg/mL)
concentration inhibiting 90% of isolates ([13]; panel of K. pneumoniae clinical isolates): 5 µM
MIC ([14]; P. aeruginosa isolate 1414): 3 µM (≈ 1.77 µg/mL)
MIC ([14]; P. aeruginosa isolate 1415): 3 µM (≈ 1.77 µg/mL)
MIC ([14]; P. aeruginosa isolate 1416): 2 µM (≈ 1.18 µg/mL)
MIC ([14]; P. aeruginosa isolate 1417): 3 µM (≈ 1.77 µg/mL)
MIC ([14]; P. aeruginosa isolate 1418): 7 µM (≈ 4.14 µg/mL)
MIC ([14]; P. aeruginosa isolate 1419): 3 µM (≈ 1.77 µg/mL)
MIC ([14]; P. aeruginosa isolate 1420): 5 µM (≈ 2.95 µg/mL)
MIC ([14]; P. aeruginosa isolate 1421): 2 µM (≈ 1.18 µg/mL)
MIC ([14]; P. aeruginosa isolate 1422): 5 µM (≈ 2.95 µg/mL)
MIC ([14]; P. aeruginosa isolate 1423): 2 µM (≈ 1.18 µg/mL)
MIC ([14]; purified compound, Table 1): 1.52 µM (≈ 0.898 µg/mL)
concentration inhibiting 90% of isolates ([14]; panel of P. aeruginosa clinical isolates): 10 µM
increase in MIC after serial passage [15]: 8 fold
stacked score activity, 100/MIC, A ([16]; A. baumannii): 25
MIC ([16]; A. baumannii isolate 1403): 2 µM (≈ 1.18 µg/mL)
MIC ([16]; A. baumannii isolate 1643): 2 µM (≈ 1.18 µg/mL)
MIC ([16]; A. baumannii isolate 1644): 2 µM (≈ 1.18 µg/mL)
MIC ([16]; A. baumannii isolate 1647): 2 µM (≈ 1.18 µg/mL)
MIC ([16]; A. baumannii isolate 1648): 2 µM (≈ 1.18 µg/mL)
MIC ([16]; A. baumannii isolate 1649): 2 µM (≈ 1.18 µg/mL)
MIC ([16]; A. baumannii isolate 1650): 2 µM (≈ 1.18 µg/mL)
MIC ([16]; A. baumannii isolate 1651): 2 µM (≈ 1.18 µg/mL)
MIC ([16]; A. baumannii isolate 1653): 2 µM (≈ 1.18 µg/mL)
MIC ([16]; A. baumannii isolate 1654): 2 µM (≈ 1.18 µg/mL)
MIC ([16]; purified compound, Table 1): 1.52 µM (≈ 0.898 µg/mL)
increase in MIC after serial passage [17]: 8 fold
